Values joined by “and” are separate entries in the source; they are usually repeats but may differ in a detail not shown here. Identical values can stand only once.

The format of one assay is in vivo, NIH/Swiss mice. The settings on record: 30 nmol/kg.
Method: In FIG. 3A, bars represent mean±sd, n=6-10. […] Gavage (1.5 g/kg) was given at t=0, Sample was taken at t=30 min. […] In FIG. 3B, points represent mean±sem, n=8-15.
Peptide was injected IP at t=−5 minutes into 4-hour fasted NIH/Swiss female mice. […] In FIG. 17 points represent mean+/−sem. […] Samples were taken at t=60, t=120 and t=180.
For `CC[C@H](C)[C@H](NC(=O)[C@H](CO)NC(=O)[C@H](Cc1ccc(O)cc1)NC(=O)[C@H](CC(=O)O)NC(=O)[C@H](CO)NC(=O)[C@@H](NC(=O)[C@H](Cc1ccccc1)NC(=O)[C@@H](NC(=O)CNC(=O)[C@H](CCC(=O)O)NC(=O)[C@H](C)NC(=O)[C@@H](N)Cc1ccc(O)cc1)[C@@H](C)O)[C@@H](C)CC)C(=O)N[C@@H](C)C(=O)N[C@@H](CCSC)C(=O)N[C@@H](CC(=O)O)C(=O)N[C@@H](CCCCN)C(=O)N[C@H](C(=O)N[C@@H](Cc1c[nH]cn1)C(=O)N[C@@H](CCC(N)=O)C(=O)N[C@@H](CCC(N)=O)C(=O)N[C@@H](CC(=O)O)C(=O)N[C@@H](Cc1ccccc1)C(=O)N[C@H](C(=O)N[C@@H](CC(N)=O)C(=O)N[C@@H](Cc1c[nH]c2ccccc12)C(=O)N[C@@H](CC(C)C)C(=O)N[C@@H](CC(C)C)C(=O)N[C@@H](C)C(=O)N[C@@H](CCC(N)=O)C(=O)N[C@@H](CCCCN)C(=O)N[C@H](C(=O)N[C@@H](CO)C(=O)N1CCC[C@H]1C(=O)N[C@@H](CCCNC(=N)N)C(=O)N1CCC[C@H]1C(=O)N1CCC[C@H]1C(=O)N[C@@H](CO)C(=O)N[C@@H](CO)C(N)=O)[C@@H](C)O)C(C)C)[C@@H](C)CC` [0601GIP4401], the “OGTT/GL (%)” value is recorded as 1, 30%.

Regarding `CC[C@H](C)[C@H](NC(=O)[C@H](CO)NC(=O)[C@H](Cc1ccc(O)cc1)NC(=O)[C@H](CC(=O)O)NC(=O)[C@H](CO)NC(=O)[C@@H](NC(=O)[C@H](Cc1ccccc1)NC(=O)[C@@H](NC(=O)CNC(=O)[C@H](CCC(=O)O)NC(=O)[C@@H](C)NC(=O)[C@H](Cc1ccc(O)cc1)NC(=O)OCC(C)C)[C@@H](C)O)[C@@H](C)CC)C(=O)N[C@@H](C)C(=O)N[C@@H](CCSC)C(=O)N[C@@H](CC(=O)O)C(=O)N[C@@H](CCCCN)C(=O)N[C@H](C(=O)N[C@@H](Cc1c[nH]cn1)C(=O)N[C@@H](CCC(N)=O)C(=O)N[C@@H](CCC(N)=O)C(=O)N[C@@H](CC(=O)O)C(=O)N[C@@H](Cc1ccccc1)C(=O)N[C@H](C(=O)N[C@@H](CC(N)=O)C(=O)N[C@@H](Cc1c[nH]c2ccccc12)C(=O)N[C@@H](CC(C)C)C(=O)N[C@@H](CC(C)C)C(=O)N[C@@H](C)C(=O)N[C@@H](CCC(N)=O)C(=O)N[C@@H](CCCCN)C(=O)N1CCC[C@H]1C(=O)N[C@@H](CO)C(=O)N[C@@H](CO)C(=O)NCC(=O)N[C@@H](C)C(=O)N1CCC[C@H]1C(=O)N1CCC[C@H]1C(=O)N1CCC[C@H]1C(=O)N[C@@H](CO)C(N)=O)C(C)C)[C@@H](C)CC` [Compound 0601GIP4180], the “OGTT/GL (%)” value is listed as −11, 30%.

Consider `CC[C@H](C)[C@H](NC(=O)[C@H](CO)NC(=O)[C@H](Cc1ccc(O)cc1)NC(=O)[C@H](CC(=O)O)NC(=O)[C@H](CO)NC(=O)[C@@H](NC(=O)[C@H](Cc1ccccc1)NC(=O)[C@@H](NC(=O)CNC(=O)[C@H](CCC(=O)O)NC(=O)[C@H](C)NC(=O)[C@@H](N)Cc1ccc(O)cc1)[C@@H](C)O)[C@@H](C)CC)C(=O)N[C@@H](C)C(=O)N[C@@H](CCSC)C(=O)N[C@@H](CC(=O)O)C(=O)N[C@@H](CCCCN)C(=O)N[C@H](C(=O)N[C@@H](Cc1c[nH]cn1)C(=O)N[C@@H](CCC(N)=O)C(=O)N[C@@H](CCC(N)=O)C(=O)N[C@@H](CC(=O)O)C(=O)N[C@@H](Cc1ccccc1)C(=O)N[C@H](C(=O)N[C@@H](CC(N)=O)C(=O)N[C@@H](Cc1c[nH]c2ccccc12)C(=O)N[C@@H](CC(C)C)C(=O)N[C@@H](CC(C)C)C(=O)N[C@@H](C)C(=O)N[C@@H](CCC(N)=O)C(=O)N[C@@H](CCCCN)C(=O)N1CCC[C@H]1C(=O)N[C@@H](CCCCN)C(=O)N[C@@H](CCCCN)C(=O)N[C@H](C(=O)N[C@@H](CCCNC(=N)N)C(=O)N[C@@H](Cc1ccc(O)cc1)C(=O)N[C@@H](CO)C(N)=O)[C@@H](C)CC)C(C)C)[C@@H](C)CC` [0601GIP4327], for which the “OGTT/GL (%)” value is −7, 30%.

As for `CC[C@H](C)[C@H](NC(=O)[C@H](CO)NC(=O)[C@H](Cc1ccc(O)cc1)NC(=O)[C@H](CC(=O)O)NC(=O)[C@H](CO)NC(=O)[C@@H](NC(=O)[C@H](Cc1ccccc1)NC(=O)[C@@H](NC(=O)CNC(=O)[C@H](CCC(=O)O)NC(=O)[C@H](C)NC(=O)[C@@H](N)Cc1ccc(O)cc1)[C@@H](C)O)[C@@H](C)CC)C(=O)N[C@@H](C)C(=O)N[C@@H](CCSC)C(=O)N[C@@H](CC(=O)O)C(=O)N[C@@H](CCCCN)C(=O)N[C@H](C(=O)N[C@@H](Cc1c[nH]cn1)C(=O)N[C@@H](CCC(N)=O)C(=O)N[C@@H](CCC(N)=O)C(=O)N[C@@H](CC(=O)O)C(=O)N[C@@H](Cc1ccccc1)C(=O)N[C@H](C(=O)N[C@@H](CC(N)=O)C(=O)N[C@@H](Cc1c[nH]c2ccccc12)C(=O)N[C@@H](CC(C)C)C(=O)N[C@@H](CC(C)C)C(=O)N[C@@H](C)C(=O)N[C@@H](CCC(N)=O)C(=O)N[C@@H](CCCCN)C(=O)N[C@H](C(=O)N[C@@H](CO)C(=O)N1CCC[C@H]1C(=O)N[C@@H](CCCNC(=N)N)C(=O)N1CCC[C@H]1C(=O)N1CCC[C@H]1C(=O)N[C@@H](CO)C(N)=O)[C@@H](C)O)C(C)C)[C@@H](C)CC` [0601GIP4328], the “OGTT/GL (%)” value is −2, 30%.

Turning to `CC[C@H](C)[C@H](NC(=O)[C@H](CO)NC(=O)[C@H](Cc1ccc(O)cc1)NC(=O)[C@H](CC(=O)O)NC(=O)[C@H](CO)NC(=O)[C@@H](NC(=O)[C@H](Cc1ccccc1)NC(=O)[C@@H](NC(=O)CNC(=O)[C@H](CCC(=O)O)NC(=O)[C@H](C)NC(=O)[C@H](Cc1ccc(O)cc1)NC(=O)[C@@H](N)CC(C)C)[C@@H](C)O)[C@@H](C)CC)C(=O)N[C@@H](C)C(=O)N[C@@H](CCSC)C(=O)N[C@@H](CC(=O)O)C(=O)N[C@@H](CCCCN)C(=O)N[C@H](C(=O)N[C@@H](Cc1c[nH]cn1)C(=O)N[C@@H](CCC(N)=O)C(=O)N[C@@H](CCC(N)=O)C(=O)N[C@@H](CC(=O)O)C(=O)N[C@@H](Cc1ccccc1)C(=O)N[C@H](C(=O)N[C@@H](CC(N)=O)C(=O)N[C@@H](Cc1c[nH]c2ccccc12)C(=O)N[C@@H](CC(C)C)C(=O)N[C@@H](CC(C)C)C(=O)N[C@@H](C)C(=O)N[C@@H](CCC(N)=O)C(=O)N[C@@H](CCCCN)C(=O)N1CCC[C@H]1C(=O)N[C@@H](CCCCN)C(=O)N[C@@H](CCCCN)C(=O)N[C@H](C(=O)N[C@@H](CCCNC(=N)N)C(=O)N[C@@H](Cc1ccc(O)cc1)C(=O)N[C@@H](CO)C(N)=O)[C@@H](C)CC)C(C)C)[C@@H](C)CC` [0601GIP4799], the “OGTT/GL (%)” value was −10, % and −10, 30%.

On to `CC[C@H](C)[C@H](NC(=O)[C@H](CO)NC(=O)[C@H](Cc1ccc(O)cc1)NC(=O)[C@H](CC(=O)O)NC(=O)[C@H](CO)NC(=O)[C@@H](NC(=O)[C@H](Cc1ccccc1)NC(=O)[C@@H](NC(=O)CNC(=O)[C@H](CC(=O)O)NC(=O)[C@H](C)NC(=O)[C@@H](N)Cc1ccc(O)cc1)[C@@H](C)O)[C@@H](C)CC)C(=O)N[C@@H](C)C(=O)N[C@@H](CCSC)C(=O)N[C@@H](CC(=O)O)C(=O)N[C@@H](CCCCN)C(=O)N[C@H](C(=O)N[C@@H](Cc1c[nH]cn1)C(=O)N[C@@H](CCC(N)=O)C(=O)N[C@@H](CCC(N)=O)C(=O)N[C@@H](CC(=O)O)C(=O)N[C@@H](Cc1ccccc1)C(=O)N[C@H](C(=O)N[C@@H](CC(N)=O)C(=O)N[C@@H](Cc1c[nH]c2ccccc12)C(=O)N[C@@H](CC(C)C)C(=O)N[C@@H](CC(C)C)C(=O)N[C@@H](C)C(=O)N[C@@H](CCC(N)=O)C(=O)N[C@@H](CCCCN)C(=O)N1CCC[C@H]1C(=O)N[C@@H](CCCCN)C(=O)N[C@@H](CCCCN)C(=O)N[C@H](C(=O)N[C@@H](CCCNC(=N)N)C(=O)N[C@@H](Cc1ccc(O)cc1)C(=O)N[C@@H](CO)C(N)=O)[C@@H](C)CC)C(C)C)[C@@H](C)CC` [Compound 0601GIP4390], for which the “OGTT/GL (%)” value is given as 1, 30%.

The same assay, now with this note: 350 nmol/kg.
On to `CC[C@H](C)[C@H](NC(=O)[C@H](CO)NC(=O)[C@H](Cc1ccc(O)cc1)NC(=O)[C@H](CC(=O)O)NC(=O)[C@H](CO)NC(=O)[C@@H](NC(=O)[C@H](Cc1ccccc1)NC(=O)[C@@H](NC(=O)CNC(=O)[C@H](CCC(=O)O)NC(=O)[C@@H](C)NC(=O)[C@@H](N)Cc1ccc(O)cc1)[C@@H](C)O)[C@@H](C)CC)C(=O)N[C@@H](C)C(=O)N[C@@H](CCSC)C(=O)N[C@@H](CC(=O)O)C(=O)N[C@@H](CCCCN)C(=O)N[C@H](C(=O)N[C@@H](Cc1c[nH]cn1)C(=O)N[C@@H](CCC(N)=O)C(=O)N[C@@H](CCC(N)=O)C(=O)N[C@@H](CC(=O)O)C(=O)N[C@@H](Cc1ccccc1)C(=O)N[C@H](C(=O)N[C@@H](CC(N)=O)C(=O)N[C@@H](Cc1c[nH]c2ccccc12)C(=O)N[C@@H](CC(C)C)C(=O)N[C@@H](CC(C)C)C(=O)N[C@@H](C)C(=O)N[C@@H](CCC(N)=O)C(=O)N[C@@H](CCCCN)C(=O)N[C@H](C(=O)N[C@@H](CO)C(=O)N1CCC[C@H]1C(=O)N[C@@H](CCCNC(=N)N)C(=O)N1CCC[C@H]1C(=O)N1CCC[C@H]1C(=O)N[C@@H](CO)C(N)=O)[C@@H](C)O)C(C)C)[C@@H](C)CC` [Compound 0601GIP4236], for which the “OGTT/GL (%)” value was −16%.

Take `CC[C@H](C)[C@H](NC(=O)[C@H](CCCCN)NC(=O)[C@H](CC(=O)O)NC(=O)[C@H](CCSC)NC(=O)[C@@H](NC(=O)[C@@H](NC(=O)[C@H](CO)NC(=O)[C@H](Cc1ccc(O)cc1)NC(=O)[C@H](CC(=O)O)NC(=O)[C@H](CO)NC(=O)[C@@H](NC(=O)[C@H](Cc1ccccc1)NC(=O)[C@@H](NC(=O)CNC(=O)[C@H](CCC(=O)O)NC(=O)[C@@H](C)NC(=O)[C@@H](N)Cc1ccc(O)cc1)[C@@H](C)O)[C@@H](C)CC)[C@@H](C)CC)[C@@H](C)O)C(=O)N[C@@H](Cc1c[nH]cn1)C(=O)N[C@@H](CCC(N)=O)C(=O)N[C@@H](CCC(N)=O)C(=O)N[C@@H](CC(=O)O)C(=O)N[C@@H](Cc1ccccc1)C(=O)N[C@H](C(=O)N[C@@H](CC(N)=O)C(=O)N[C@@H](Cc1c[nH]c2ccccc12)C(=O)N[C@@H](CC(C)C)C(=O)N[C@@H](CC(C)C)C(=O)N[C@@H](C)C(=O)N[C@@H](CCC(N)=O)C(=O)N[C@@H](CCCCN)C(=O)N1CCC[C@H]1C(=O)N[C@@H](CO)C(=O)N[C@@H](CO)C(=O)NCC(=O)N[C@@H](C)C(=O)N1CCC[C@H]1C(=O)N1CCC[C@H]1C(=O)N1CCC[C@H]1C(=O)N[C@@H](CO)C(N)=O)C(C)C` [Compound 0601GIP4213]: the “OGTT/GL (%)” value is −17%.

The values are drawn from patent US8497240B2 (priority 2006, dated 2013).
